# Source: article PMC5458547, “Discovery of first-in-class reversible dual small molecule inhibitors against G9a and DNMTs in hematological malignancies” (Nature Communications, 2017)
# Tested on: CEMO-1 cells
# Test: ALL CEMO-1 xenograft survival
# Type: in vivo, mice
# Details: 1 mg/kg i.v. daily for 28 days
# Experimental: Statistical results were calculated using the statistical software medcalc.
# 270 nM for MV4-11 cell line and 200 and 400 nM for OCI-Ly10). Extracellular HMGB1 from 48 h cell culture supernatants was quantified by means of the HMGB1 ELISA Kit II (Shino Test Corp.), following the manufacturer's instructions.
# All animal studies had previous approval from the Animal Care and Ethics Committee of the University of Navarra, whereas experiments that used patient samples were approved by the Human Research Ethics Committees of University of Navarra.
# The human ALL CEMO-1 xenograft mice model was generated by intravenously (i.v.) injection of 10x10^6 cells diluted in 100 µL of saline solution in the tail vein of a 6-8-week-old female BALB/cA- Rag2-/-γc-/- mice (n=12). Three days after injection, antitumor treatment was started intravenously in 6 mice. 1 mg/kg […]
# The control group (n=6) received only
# The mice weight was controlled and stable during the treatment.
# Statistical results were calculated using the statistical software medcalc. […]
# consecutive days. […] Statistical results were calculated using the statistical software medcalc. […]
# The control group (n=6) received only saline solution. […] Statistical results were calculated using the statistical software medcalc. […]
# washout period, hematological and liver parameters were measured. […]
# washout period hematological and liver parameters were measured. […]
structure (smiles),measurement,value
"COc1cc2c(NC3CCN(C)CC3)cc(-c3ccc(C)o3)nc2cc1OCCCN1CCCC1 [CM-272, 6-methoxy-2-(5-methyl-2-furyl)-N-(1-methyl-4-piperidyl)-7-(3-pyrrolidin-1-ylpropoxy)quinolin-4-amine]",survival,not able to prolong survival
